Results on 27 compounds are retold here after patent US11173151B2, “Substituted triazole derivatives and uses thereof” (BAYER AKTIENGESELLSCHAFT, priority 2017, dated 2021).

As usually defined, the IC50 is the concentration that gives 50% inhibition.

One assay addresses T1, human V1a receptor (Homo sapiens, UniProt P37288).
T1 construct: expressed in transfected cells; host or cells: CHO K1 (ATCC), also stably transfected with a modified aequorin
As to the kind of experiment: Cellular in vitro assay for determining vasopressin receptor activity, V1a receptor cell line (CHO, aequorin luminescence). The conditions noted are these: for IC50: CHO cell line transfected with human V1a receptor, [Arg]-vasopressin at EC50 concentration, read-out: IC50 hV1a; for ratio IC50 hV2/hV1a: selectivity ratio IC50 hV2 / IC50 hV1a. It is filed as cell-based. The essentials:
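IC50 from inhibition of [Arg]-vasopressin (EC50 concentration)-evoked aequorin luminescence in CHO K1 cells, with 10-min compound pretreatment.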

The next assay concerns the target T2, human V2 receptor (Homo sapiens, UniProt P30518).
T2 construct: expressed in transfected cells; host or cells: CHO K1 (ATCC) expressing firefly luciferase under a CRE-responsive promoter
As to the kind of experiment: Cellular in vitro assay for determining vasopressin receptor activity, V2 receptor cell line (CHO, CRE-luciferase). It is filed as cell-based. The conditions noted are these: CHO cell line transfected with human V2 receptor; [Arg8]-vasopressin at EC50 concentration, 3 hours; read-out: IC50 hV2.

T1 sequence (P37288 whole entry): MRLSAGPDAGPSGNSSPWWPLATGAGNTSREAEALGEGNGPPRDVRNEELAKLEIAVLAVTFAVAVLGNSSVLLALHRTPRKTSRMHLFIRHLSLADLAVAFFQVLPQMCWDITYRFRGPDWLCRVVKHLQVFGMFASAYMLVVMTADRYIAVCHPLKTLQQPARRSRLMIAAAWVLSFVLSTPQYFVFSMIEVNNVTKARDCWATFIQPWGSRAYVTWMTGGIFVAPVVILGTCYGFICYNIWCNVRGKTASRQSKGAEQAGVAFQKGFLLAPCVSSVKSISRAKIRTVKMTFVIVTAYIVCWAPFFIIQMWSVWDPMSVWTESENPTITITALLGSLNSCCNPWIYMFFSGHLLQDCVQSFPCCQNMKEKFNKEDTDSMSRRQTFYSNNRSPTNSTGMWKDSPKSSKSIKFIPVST
T2 sequence (P30518 whole entry): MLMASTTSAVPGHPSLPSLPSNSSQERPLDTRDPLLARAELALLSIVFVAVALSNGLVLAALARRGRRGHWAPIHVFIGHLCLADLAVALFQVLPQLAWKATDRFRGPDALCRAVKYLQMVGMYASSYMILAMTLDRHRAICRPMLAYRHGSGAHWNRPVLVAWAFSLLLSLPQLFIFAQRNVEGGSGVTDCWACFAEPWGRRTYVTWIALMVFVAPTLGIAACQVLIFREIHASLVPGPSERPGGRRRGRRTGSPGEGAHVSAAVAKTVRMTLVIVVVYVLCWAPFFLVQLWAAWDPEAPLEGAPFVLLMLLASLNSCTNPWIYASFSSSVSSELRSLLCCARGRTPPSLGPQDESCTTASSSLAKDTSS

For `O=c1n(Cc2ncn(-c3cccnc3NCC(F)(F)F)n2)nc(-c2ccc(Cl)cc2)n1C[C@H](O)C(F)(F)F` [Example 71, 5-(4-Chlorophenyl)-2-[(1-{2-[(2,2,2-trifluoroethyl)amino]pyridin-3-yl}-1H-1,2,4-triazol-3-yl)methyl]-4-[(2S)-3,3,3-trifluoro-2-hydroxypropyl]-2,4-dihydro-3H-1,2,4-triazol-3-one], on human V1a receptor, the IC50 is 150 nM and the “ratio IC50 hV2/hV1a” value came out at 1.6. For the same compound, the IC50 on human V2 receptor was 240 nM.
On the same counts, the results for `O=c1n(Cc2ncn(-c3cccnc3NCC3CS(=O)(=O)C3)n2)nc(-c2ccc(Cl)cc2)n1C[C@H](O)C(F)(F)F` [Example 72, 5-(4-Chlorophenyl)-2-{[1-(2-{[(1,1-dioxidothietan-3-yl)methyl]amino}pyridin-3-yl)-1H-1,2,4-triazol-3-yl]methyl}-4-[(2S)-3,3,3-trifluoro-2-hydroxypropyl]-2,4-dihydro-3H-1,2,4-triazol-3-one] are 2050 nM, 15.6 and 32000 nM.
Turning to `CC(=O)Nc1ncccc1-n1cnc(Cn2nc(-c3ccc(Cl)cc3)n(C[C@H](O)C(F)(F)F)c2=O)n1` [Example 73, N-{3-[3-({3-(4-Chlorophenyl)-5-oxo-4-[(2S)-3,3,3-trifluoro-2-hydroxypropyl]-4,5-dihydro-1H-1,2,4-triazol-1-yl}methyl)-1H-1,2,4-triazol-1-yl]pyridin-2-yl}acetamide], the 50% inhibitory concentration (IC50) was 53 nM at human V1a receptor and 710 nM at human V2 receptor. For the same compound, at human V1a receptor, the “ratio IC50 hV2/hV1a” value was determined as 13.4.
In the case of `O=C(CC(F)(F)F)Nc1ncccc1-n1cnc(Cn2nc(-c3ccc(Cl)cc3)n(C[C@H](O)C(F)(F)F)c2=O)n1` [Example 74, N-{3-[3-({3-(4-Chlorophenyl)-5-oxo-4-[(2S)-3,3,3-trifluoro-2-hydroxypropyl]-4,5-dihydro-1H-1,2,4-triazol-1-yl}methyl)-1H-1,2,4-triazol-1-yl]pyridin-2-yl}-3,3,3-trifluoropropanamide], on human V1a receptor, the IC50 is 5.6 nM and the “ratio IC50 hV2/hV1a” value was determined as 154.5. For the same compound, the IC50 on human V2 receptor was determined as 865 nM.
In the case of `O=C(Nc1ncccc1-n1cnc(Cn2nc(-c3ccc(Cl)cc3)n(C[C@H](O)C(F)(F)F)c2=O)n1)C1CC(F)(F)C1` [Example 80, N-{3-[3-({3-(4-Chlorophenyl)-5-oxo-4-[(2S)-3,3,3-trifluoro-2-hydroxypropyl]-4,5-dihydro-1H-1,2,4-triazol-1-yl}methyl)-1H-1,2,4-triazol-1-yl]pyridin-2-yl}-3,3-difluorocyclobutanecarboxamide], at human V1a receptor, the IC50 amounted to 6.65 nM and the “ratio IC50 hV2/hV1a” value is on record as 270.7. On human V2 receptor, the IC50 was found to be 1800 nM.
`O=C(Nc1ncccc1-n1cnc(Cn2nc(-c3ccc(Cl)cc3)n(C[C@H](O)C(F)(F)F)c2=O)n1)C1(C(F)(F)F)CC1` [Example 81, N-{3-[3-({3-(4-Chlorophenyl)-5-oxo-4-[(2S)-3,3,3-trifluoro-2-hydroxypropyl]-4,5-dihydro-1H-1,2,4-triazol-1-yl}methyl)-1H-1,2,4-triazol-1-yl]pyridin-2-yl}-1-(trifluoromethyl)cyclopropanecarboxamide]: on human V1a receptor, the IC50 worked out at 2.05 nM and the “ratio IC50 hV2/hV1a” value came out at 658.5. In addition, the IC50 at human V2 receptor turned out to be 1350 nM.
`O=C(Nc1ncccc1-n1cnc(Cn2nc(-c3ccc(Cl)cc3)n(C[C@H](O)C(F)(F)F)c2=O)n1)C1CC1` [Example 83, N-{3-[3-({3-(4-Chlorophenyl)-5-oxo-4-[(2S)-3,3,3-trifluoro-2-hydroxypropyl]-4,5-dihydro-1H-1,2,4-triazol-1-yl}methyl)-1H-1,2,4-triazol-1-yl]pyridin-2-yl}cyclopropanecarboxamide]: on human V1a receptor, the half-inhibitory concentration (IC50) was determined as 5.35 nM and the “ratio IC50 hV2/hV1a” value worked out at 106.5. Also, the 50% inhibitory concentration (IC50) on human V2 receptor was determined as 570 nM.
As for `O=C(Nc1ncccc1-n1cnc(Cn2nc(-c3ccc(Cl)cc3)n(C[C@H](O)C(F)(F)F)c2=O)n1)C1CC1F` (stereo partly drawn) [Example 85, N-{3-[3-({3-(4-Chlorophenyl)-5-oxo-4-[(2S)-3,3,3-trifluoro-2-hydrxypropyl]-4,5-dihydro-1H-1,2,4-triazol-1-yl}methyl)-1H-1,2,4-triazol-1-yl]pyridin-2-yl}-2-fluorocyclopropanecarboxamide], at human V1a receptor, the IC50 was determined as 7.35 nM and the “ratio IC50 hV2/hV1a” value is recorded as 673.5. In addition, the half-inhibitory concentration (IC50) at human V2 receptor amounted to 4950 nM.
Turning to `O=C(CC1CC1)Nc1ncccc1-n1cnc(Cn2nc(-c3ccc(Cl)cc3)n(C[C@H](O)C(F)(F)F)c2=O)n1` [Example 87, N-{3-[3-({3-(4-Chlorophenyl)-5-oxo-4-[(2S)-3,3,3-trifluoro-2-hydroxypropyl]-4,5-dihydro-1H-1,2,4-triazol-1-yl}methyl)-1H-1,2,4-triazol-1-yl]pyridin-2-yl}-2-cyclopropylacetamide], at human V1a receptor, the half-maximal inhibitory concentration (IC50) came to 4.8 nM and the “ratio IC50 hV2/hV1a” value came to 228.1. In addition, the 50% inhibitory concentration (IC50) at human V2 receptor was 1100 nM.
Consider `O=C(Cn1cncn1)Nc1ncccc1-n1cnc(Cn2nc(-c3ccc(Cl)cc3)n(C[C@H](O)C(F)(F)F)c2=O)n1` [Example 88, N-{3-[3-({3-(4-Chlorophenyl)-5-oxo-4-[(2S)-3,3,3-trifluoro-2-hydroxypropyl]-4,5-dihydro-1H-1,2,4-triazol-1-yl}methyl)-1H-1,2,4-triazol-1-yl]pyridin-2-yl}-2-(1H-1,2,4-triazol-1-yl)acetamide], for which the IC50 was 41 nM at human V1a receptor and 1170 nM on human V2 receptor. Besides, the “ratio IC50 hV2/hV1a” value on human V1a receptor came to 28.7.
On the same counts, the results for `O=C(Cc1cccnc1)Nc1ncccc1-n1cnc(Cn2nc(-c3ccc(Cl)cc3)n(C[C@H](O)C(F)(F)F)c2=O)n1` [Example 89] are 36 nM, 1850 nM and 51.4.
For `CN1CC(C(=O)Nc2ncccc2-n2cnc(Cn3nc(-c4ccc(Cl)cc4)n(C[C@H](O)C(F)(F)F)c3=O)n2)CC1=O` (stereo partly drawn) [Example 90], the figures for the IC50 at human V1a receptor and at human V2 receptor were 90 nM and 1550 nM, respectively. Further, the “ratio IC50 hV2/hV1a” value at human V1a receptor was found to be 17.2.
With `O=C(CN1CCCC1=O)Nc1ncccc1-n1cnc(Cn2nc(-c3ccc(Cl)cc3)n(C[C@H](O)C(F)(F)F)c2=O)n1` [Example 91], on human V1a receptor, the IC50 turned out to be 195 nM and the “ratio IC50 hV2/hV1a” value is listed as 6.4. For the same compound, the IC50 at human V2 receptor was 1250 nM.
For the compound `Cc1cnn(CC(=O)Nc2ncccc2-n2cnc(Cn3nc(-c4ccc(Cl)cc4)n(C[C@H](O)C(F)(F)F)c3=O)n2)c1` [Example 92], the IC50 amounted to 240 nM at human V1a receptor and 1750 nM on human V2 receptor. At human V1a receptor, the “ratio IC50 hV2/hV1a” value amounted to 7.3.
In the case of `O=C(Nc1ncccc1-n1cnc(Cn2nc(-c3ccc(Cl)cc3)n(C[C@H](O)C(F)(F)F)c2=O)n1)c1cncc(F)c1` [Example 93], the half-maximal inhibitory concentration (IC50) at human V1a receptor was found to be 7.65 nM; on human V2 receptor, 505 nM. The “ratio IC50 hV2/hV1a” value at human V1a receptor worked out at 66.0.
For `Cc1nccn1CC(=O)Nc1ncccc1-n1cnc(Cn2nc(-c3ccc(Cl)cc3)n(C[C@H](O)C(F)(F)F)c2=O)n1` [Example 94], at human V1a receptor, the IC50 worked out at 16 nM and the “ratio IC50 hV2/hV1a” value was 140.6. Also, the half-inhibitory concentration (IC50) at human V2 receptor was 2250 nM.
Regarding `O=C(Nc1ncccc1-n1cnc(Cn2nc(-c3ccc(Cl)cc3)n(C[C@H](O)C(F)(F)F)c2=O)n1)c1ccccc1` [Example 95], on human V1a receptor, the IC50 was 92 nM and the “ratio IC50 hV2/hV1a” value is listed as 23.4. Further, the IC50 at human V2 receptor was found to be 2150 nM.
With `CNCC(=O)Nc1ncccc1-n1cnc(Cn2nc(-c3ccc(Cl)cc3)n(C[C@H](O)C(F)(F)F)c2=O)n1` [Example 96], at human V1a receptor, the half-inhibitory concentration (IC50) was found to be 2.1 nM and the “ratio IC50 hV2/hV1a” value is on record as 266.7. Further, the IC50 on human V2 receptor worked out at 560 nM.
On to `O=C(Cc1ccccc1)Nc1ncccc1-n1cnc(Cn2nc(-c3ccc(Cl)cc3)n(C[C@H](O)C(F)(F)F)c2=O)n1` [Example 97], for which, on human V1a receptor, the IC50 amounted to 135 nM and the “ratio IC50 hV2/hV1a” value amounted to 15.2. At human V2 receptor, the IC50 was 2050 nM.
As to `CC1(C(=O)Nc2ncccc2-n2cnc(Cn3nc(-c4ccc(Cl)cc4)n(C[C@H](O)C(F)(F)F)c3=O)n2)CCCO1` (stereo partly drawn) [Example 98], on human V1a receptor, the half-inhibitory concentration (IC50) was determined as 125 nM and the “ratio IC50 hV2/hV1a” value amounted to 7.6. Besides, the half-maximal inhibitory concentration (IC50) on human V2 receptor was found to be 945 nM.
`CC1CC(=O)NC1C(=O)Nc1ncccc1-n1cnc(Cn2nc(-c3ccc(Cl)cc3)n(C[C@H](O)C(F)(F)F)c2=O)n1` (stereo partly drawn) [Example 99]: the IC50 at human V1a receptor was 40 nM; on human V2 receptor it was 4000 nM. Also, the “ratio IC50 hV2/hV1a” value at human V1a receptor turned out to be 100.0.
Consider `O=C(Nc1ncccc1-n1cnc(Cn2nc(-c3ccc(Cl)cc3)n(C[C@H](O)C(F)(F)F)c2=O)n1)c1csnn1` [Example 100], for which, at human V1a receptor, the IC50 was determined as 26.5 nM and the “ratio IC50 hV2/hV1a” value was determined as 40.2. Also, at human V2 receptor, the IC50 came out at 1060 nM.
Consider `O=C(Nc1ncccc1-n1cnc(Cn2nc(-c3ccc(Cl)cc3)n(C[C@H](O)C(F)(F)F)c2=O)n1)c1ccccc1O` [Example 101], for which, on human V1a receptor, the IC50 came to 110 nM and the “ratio IC50 hV2/hV1a” value worked out at 17.7. Also, on human V2 receptor, the IC50 was found to be 1950 nM.
Turning to `Cc1cc(C(=O)Nc2ncccc2-n2cnc(Cn3nc(-c4ccc(Cl)cc4)n(C[C@H](O)C(F)(F)F)c3=O)n2)on1` [Example 102], at human V1a receptor, the 50% inhibitory concentration (IC50) is 80 nM and the “ratio IC50 hV2/hV1a” value came out at 14.4. At human V2 receptor, the 50% inhibitory concentration (IC50) turned out to be 1150 nM.
With `O=C(CN1CCCCC1)Nc1ncccc1-n1cnc(Cn2nc(-c3ccc(Cl)cc3)n(C[C@H](O)C(F)(F)F)c2=O)n1` [Example 103], on human V1a receptor, the IC50 turned out to be 155 nM and the “ratio IC50 hV2/hV1a” value amounted to 15.5. Moreover, the concentration for half-maximal inhibition (IC50) at human V2 receptor came out at 2400 nM.
On the same counts, the results for `O=C(Nc1ncccc1-n1cnc(Cn2nc(-c3ccc(Cl)cc3)n(C[C@H](O)C(F)(F)F)c2=O)n1)c1cnccn1` [Example 104] are 8.25 nM, 193.9 and 1600 nM.
For `O=C(CC1CCCCC1)Nc1ncccc1-n1cnc(Cn2nc(-c3ccc(Cl)cc3)n(C[C@H](O)C(F)(F)F)c2=O)n1` [Example 105], the IC50 on human V1a receptor came to 130 nM; on human V2 receptor, 1100 nM. In addition, at human V1a receptor, the “ratio IC50 hV2/hV1a” value is listed as 8.5.
